This note sets out measurements from patent publication US10793557B2, “Sting agonist compounds” (Merck Sharp & Dohme Corp., priority 2018, dated 2020).

For experiment [1], the target named is T1, full-length HAQ STING (Homo sapiens, UniProt Q86WV6, G230A/H232R/R293Q/R71H).
T1 construct: AviTag (after GG linker) (C); HRV3C cleavage site (after GS linker) (C); HIS8 (C); made in house; host or cells: Trichoplusia ni (Hi-Five) insect cells infected with baculovirus (virus generated and amplified in Sf21 cells); used as a washed membrane preparation
Nature of the experiment: 3H-cGAMP filtration binding assay (HAQ STING). To be noted: competition with tritiated cGAMP, HAQ STING membrane. An outline of the steps: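 Hi-Five (T. ni) membranes overexpressing the STING variant (2.2 ug/ml working) preincubated with compound 60 min at RT in PBS, then [3H]cGAMP (8 nM working stock) added for 60 min at RT. Bound radioactivity captured on GF/B filters and counted by scintillation; EC50 from 4-parameter fit of control-normalized activity.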

Experiment [2] relates to secretion of interferon-beta from THP1 cells. Nature of the experiment: IFN-β secretion in THP1 cell culture (5 h). The class given is cell-based. The conditions noted are these: Homo sapiens, THP-1, 5 h, compound at 30 μM, 30 uM cGAMP = 100%, read-out: % Effect at 30 μM relative to 2′3′-cGAMP. An outline of the steps:
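IFN-β in supernatant measured by AlphaLISA after a 5 h, 37 °C incubation of THP1 cells with compound (10 concentrations, 30000 down to 1.5 nM, 0.3% DMSO) in low-serum RPMI. Values scaled between DMSO and 30 uM cGAMP controls; 4-parameter curve fit yields EC50.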

Experiment [3] concerns the target T2, full-length WT STING (Homo sapiens, UniProt Q86WV6, H232R).
T2 construct: AviTag (after gg linker) (C); HRV3C cleavage site (after gs linker) (C); HIS8 (C); made in house; host or cells: Trichoplusia ni (Hi-Five) insect cells infected with baculovirus (virus generated and amplified in Sf21 cells); used as a washed membrane preparation
The experiment is described as follows: 3H-cGAMP filtration binding assay (WT STING). The conditions noted are these: for EC50: competition with tritiated cGAMP, WT STING membrane. A digest of the protocol:
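EC50 values come from 4-parameter fits of remaining filter-bound tritium versus log concentration (10-point, 1:3 dilution). Insect-cell membranes carrying full-length WT STING were incubated 60 min at RT with compound and tritiated cGAMP (16 nM working stock) before filtration.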

T2 sequence (Q86WV6 with tags, fused parts or gaps H232R): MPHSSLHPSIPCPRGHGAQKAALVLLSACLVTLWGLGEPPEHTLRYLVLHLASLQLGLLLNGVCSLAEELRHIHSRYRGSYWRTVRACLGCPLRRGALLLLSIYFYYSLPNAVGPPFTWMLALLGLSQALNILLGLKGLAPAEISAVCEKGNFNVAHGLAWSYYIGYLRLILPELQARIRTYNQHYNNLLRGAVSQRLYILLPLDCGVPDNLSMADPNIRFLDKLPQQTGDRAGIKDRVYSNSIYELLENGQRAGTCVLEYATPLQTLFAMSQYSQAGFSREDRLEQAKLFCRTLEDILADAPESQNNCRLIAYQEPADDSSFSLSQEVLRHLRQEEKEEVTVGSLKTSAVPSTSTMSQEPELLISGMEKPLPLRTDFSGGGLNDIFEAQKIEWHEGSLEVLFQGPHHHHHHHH
T1 sequence (Q86WV6 with tags, fused parts or gaps R71H/G230A/H232R/R293Q): as the sequence (Q86WV6 with tags, fused parts or gaps H232R) above, with R71H, G230A, R293Q counted along it

In general, EC50 refers to the concentration needed to bring the measured effect to its halfway point. With `COc1cc2sc(C(=O)C[C@H](C)C(=O)O)cc2cc1CCCOc1nc2cc(C(=O)C[C@H](C)C(=O)O)sc2cc1OC` [Example 16, (S)-4-(5-(3-(2-((S)-3-carboxybutanoyl)-6-methoxybenzo [b]thiophen-5-yl)propoxy)-6-methoxythieno[3,2-b]pyridin-2-yl)-2-methyl-4-oxobutanoic acid], the values for the half-maximal effective concentration (EC50) in experiment [1] and in experiment [3] were 22 nM and 51 nM, respectively. Besides, the activation at 30 µM in experiment [2] was found to be 70%.
`COc1cc2sc(C(=O)CCC(=O)O)cc2cc1OCCOc1nc2cc(C(=O)C[C@H](C)C(=O)O)sc2cc1OC` [Example 17, (S)-4-(5-(2-((2-(3-carboxypropanoyl)-6-methoxybenzo [b]thiophen-5-yl)oxy)ethoxy)-6-methoxythieno[3,2-b]pyridin-2-yl)-2-methyl-4-oxobutanoic acid]: the EC50 came to 52 nM in experiment [1] and 299 nM in experiment [3]. The activation at 30 µM in experiment [2] was 38%.
In the case of `COc1cc2sc(C(=O)CCC(=O)O)cc2cc1OCCCOc1nc2cc(C(=O)C[C@H](C)C(=O)O)sc2cc1OC` [Example 18, (S)-4-(5-(3-((2-(3-carboxypropanoyl)-6-methoxybenzo [b]thiophen-5-yl)oxy)propoxy)-6-methoxythieno [3,2-b]pyridin-2-yl)-2-methyl-4-oxobutanoic acid], the EC50 was determined as 2 nM in experiment [1] and 8 nM in experiment [3]. Moreover, in experiment [2], the activation at 30 µM was determined as 62%.
Consider `COc1cc2sc(C(=O)C[C@H](C)C(=O)O)cc2nc1OCCOc1c(OC)cc2sc(C(=O)CCC(=O)O)cc2c1F` [Example 20, (S)-4-(5-(2-((2-(3-carboxypropanoyl)-4-fluoro-6-methoxybenzo[b]thiophen-5-yl)oxy)ethoxy)-6-methoxythieno[3,2-b]pyridin-2-yl)-2-methyl-4-oxobutanoic acid], for which the EC50 in experiment [1] was found to be 7 nM; in experiment [3] it was 24 nM. Besides, in experiment [2], the activation at 30 µM stood at 63%.
The like results for `COc1cc2sc(C(=O)C[C@H](C)C(=O)O)cc2nc1OCCCOc1c(OC)cc2sc(C(=O)CCC(=O)O)cc2c1F` [Example 21, (S)-4-(5-(3-((2-(3-carboxypropanoyl)-4-fluoro-6-methoxybenzo[b]thiophen-5-yl)oxy)propoxy)-6-methoxythieno[3,2-b]pyridin-2-yl)-2-methyl-4-oxobutanoic acid] were, in that order, 1 nM, 5 nM and 59%.
The like results for `COc1cc2sc(C(=O)CCC(=O)O)cc2nc1OCCCOc1c(OC)cc2sc(C(=O)C[C@H](C)C(=O)O)cc2c1F` [Example 23, (S)-4-(5-(3-((2-(3-carboxypropanoyl)-6-methoxythieno [3,2-b]pyridin-5-yl)oxy)propoxy)-4-fluoro-6-methoxybenzo[b]thiophen-2-yl)-2-methyl-4-oxobutanoic acid] were, in that order, 1 nM, 2 nM and 83%.
As a reminder, the inhibition is how much of the control response was suppressed. In the case of `COc1cc2sc(C(=O)CCC#N)cc2cc1CCCc1cc2cc(C(=O)CCC(=O)O)sc2cc1OC` [Example 24, 4-(5-(3-(2-(3-cyanopropanoyl)-6-methoxybenzo[b]thiophen-5-yl)propyl)-6-methoxybenzo[b]thiophen-2-yl)-4-oxobutanoic acid], in experiment [1], the midpoint of the response, the EC50, lay at 17800 nM. Also, in experiment [2], the activation at 30 µM was 150%. This molecule also came in with an inhibition at 20 µM in experiment [3] (at 20,000 nM compound) of 39%.
As to `COc1cc2sc(C(=O)CCC(=O)O)cc2cc1CCCc1cc2cc(C(=O)CCC(=O)O)sc2cc1OC` [Example 25, 4,4′-(5,5′-(propane-1,3-diyl)bis(6-methoxybenzo[b]thiophene-5,2-diyl))bis(4-oxobutanoic acid)], the values for the EC50 in experiment [1] and in experiment [3] were 6 nM and 23 nM, respectively. The activation at 30 µM in experiment [2] is 136%.
Take `COc1cc(CCCc2cc3sc(C(=O)CCC(=O)O)cc3cc2OC)c2cc(C(=O)CCC(=O)O)sc2c1` [Example 26, 4-(4-(3-(2-(3-carboxypropanoyl)-5-methoxbenzo[b]thiophen-6-yl)propyl)-6-methoxybenzo[b]thiophen-2-yl)-4-oxobutanoic acid]: the concentration for a half-maximal effect (EC50) in experiment [1] came to 9 nM; in experiment [3], 19 nM. In experiment [2], the activation at 30 µM was 129%.
Turning to `COc1cc2sc(C(=O)CCC(=O)O)nc2cc1CCCc1cc2nc(C(=O)CCC(=O)O)sc2cc1OC` [Example 27, 4,4′-(propane-1,3-diylbis(6-methoxybenzo[d]thiazole-5,2-diyl))bis(4-oxobutanoic acid)], the figures for the EC50 in experiment [1] and in experiment [3] were 89 nM and 362 nM, respectively. The activation at 30 µM in experiment [2] came out at 113%.
For the molecule `Cc1cc2sc(C(=O)CCC(=O)O)cc2cc1CCCc1cc2cc(C(=O)CCC(=O)O)sc2cc1C` [Example 28, 4,4′-(propane-1,3-diylbis(6-methylbenzo[b]thiophene-5,2-diyl))bis(4-oxobutanoic acid)], the EC50 came out at 46 nM in experiment [1] and 112 nM in experiment [3]. Besides, the activation at 30 µM in experiment [2] was determined as 116%.
For `COc1cc2sc(C(=O)CCC(=O)O)cc2cc1CCCc1nc2cc(C(=O)CCC(=O)O)sc2cc1OC` [Example 29, 4-(5-(3-(2-(3-carboxypropanoyl)-6-methoxybenzo [b]thiophen-5-yl)propyl)-6-methoxythieno[3,2-b]pyridin-2-yl)-4-oxobutanoic acid], the values for the EC50 in experiment [1] and in experiment [3] were 8 nM and 44 nM, respectively. Further, the activation at 30 µM in experiment [2] amounted to 107%.
In the case of `COc1cc2sc(C(=O)CCC(N)=O)cc2cc1CCCc1cc2cc(C(=O)CCC(=O)O)sc2cc1OC` [Example 30, 4-(5-(3-(2-(4-amino-4-oxobutanoyl)-6-methoxybenzo[b]thiophen-5-yl)propyl)-6-methoxybenzo [b]thiophen-2-yl)-4-oxobutanoic acid], the results for the EC50 in experiment [1] and in experiment [3] were 1000 nM and 7520 nM, respectively. For the same molecule, the activation at 30 µM in experiment [2] is 103%.
As to `COc1cc2sc(CC[C@H](C)C(=O)O)cc2cc1CCCc1cc2cc(C(=O)CCC(=O)O)sc2cc1OC` [Example 31, (S)-4-(5-(3-(2-(3-carboxybutyl)-6-methoxybenzo[b]thiophen-5-yl)propyl)-6-methoxybenzo[b]thiophen-2-yl)-4-oxobutanoic acid], the EC50 in experiment [1] was found to be 3320 nM; in experiment [3], 9480 nM. Besides, the activation at 30 µM in experiment [2] worked out at 117%.
Turning to `COc1cc2sc(C(=O)CCC(=O)O)cc2cc1CCCOc1c(OC)cc2sc(C(=O)CCC(=O)O)cc2c1F` [Example 32, 4-(5-(3-((2-(3-carboxypropanoyl)-4-fluoro-6-methoxybenzo[b]thiophen-5-yl)oxy)propyl)-6-methoxybenzo [b]thiophen-2-yl)-4-oxobutanoic acid], the EC50 amounted to 4 nM in experiment [1] and 9 nM in experiment [3]. For the same molecule, in experiment [2], the activation at 30 µM was determined as 117%.
The like results for `COc1cc2sc(C(=O)CCC(=O)O)cc2cc1CCCOc1c(OC)cc2sc(C(=O)C[C@H](C)C(=O)O)cc2c1F` [Example 33, (S)-4-(5-(3-(2-(3-carboxypropanoyl)-6-methoxybenzo [b]thiophen-5-yl)propoxy)-4-fluoro-6-methoxybenzo[b]thiophen-2-yl)-2-methyl-4-oxobutanoic acid] were, in that order, 1 nM, 4 nM and 104%.
As to `COc1cc2sc(C(=O)CCC(=O)O)cc2cc1OCCOc1c(OC)cc2sc(C(=O)C[C@H](C)C(=O)O)cc2c1F` [Example 34, (S)-4-(5-(2-((2-(3-carboxypropanoyl)-6-methoxybenzo [b]thiophen-5-yl)oxy)ethoxy)-4-fluoro-6-methoxybenzo[b]thiophen-2-yl)-2-methyl-4-oxobutanoic acid], the concentration for a half-maximal effect (EC50) amounted to 3 nM in experiment [1] and 4 nM in experiment [3]. Also, the activation at 30 µM in experiment [2] was determined as 72%.
Take `COc1cc2sc(C(=O)C[C@H](C)C(=O)O)cc2cc1CCCOc1c(OC)cc2sc(C(=O)CCC(=O)O)cc2c1F` [Example 35, (S)-4-(5-(3-((2-(3-carboxypropanoyl)-4-fluoro-6-methoxybenzo[b]thiophen-5-yl)oxy)propyl)-6-methoxybenzo[b]thiophen-2-yl)-2-methyl-4-oxobutanoic acid]: the 50% effective concentration (EC50) in experiment [1] was 2 nM; in experiment [3] it was 4 nM. Further, in experiment [2], the activation at 30 µM was found to be 80%.
For `COc1cc2sc(C(=O)CCC(=O)O)cc2cc1OCCOc1c(OC)cc2sc(C(=O)CCC(=O)O)cc2c1F` [Example 36, 4-(5-(2-((2-(3-carboxypropanoyl)-4-fluoro-6-methoxybenzo[b]thiophen-5-yl)oxy)ethoxy)-6-methoxybenzo[b]thiophen-2-yl)-4-oxobutanoic acid], the half-maximal effective concentration (EC50) amounted to 4 nM in experiment [1] and 10 nM in experiment [3]. In addition, the activation at 30 µM in experiment [2] amounted to 102%.
